Laboratory results reported in patent publication US8529951B1, “Elastogenic cues and methods for using same” (priority 2007, dated 2013).

Tests used:
[1] = molecular target: T1, lysyl oxidase (LOX) (Rattus norvegicus, UniProt P16636); assay: LOX functional activity (fluorometric Amplex red assay of spent medium); format: cell-based; details: 21 days
T1 construct: spent culture medium pooled at day 21 of a culture was assayed; endogenous in cells; host or cells: adult rat aortic smooth muscle cells (RASMCs; Cell Applications), spent culture medium
T1 sequence (P16636 163-411): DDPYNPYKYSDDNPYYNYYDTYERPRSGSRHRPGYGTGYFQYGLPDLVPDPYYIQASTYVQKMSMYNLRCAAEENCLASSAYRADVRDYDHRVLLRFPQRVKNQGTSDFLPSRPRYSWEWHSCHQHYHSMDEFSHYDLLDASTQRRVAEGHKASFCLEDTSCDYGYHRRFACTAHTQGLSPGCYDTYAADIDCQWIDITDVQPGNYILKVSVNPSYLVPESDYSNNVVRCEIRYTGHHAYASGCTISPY
Description: To determine LOX functional activity, spent culture medium pooled at day 21 of a culture was assayed using a fluorometric assay based on generation of H2O2 when LOX acts on a synthetic substrate. H2O2 was detected using an Amplex® red kit (Molecular Probes, OR,). The fluorescence intensities were recorded with excitation and emission wavelengths at 560 nm and 590 nm, respectively

[2] = test system: RASMCs; assay: RASMC proliferation (fluorometric DNA assay of cell layers); format: cell-based, rat
Description: At 1 and 21 days of culture, the DNA content of the cell layers was measured to determine the proliferation of SMCs and to normalize the measured amounts of synthesized matrix (elastin, collagen). The fluorometric DNA assay, described previously by Labarca and Paigen (Labarca C, Paigen K. A simple, rapid, and sensitive DNA assay procedure. Anal Biochem. 1980; 102:344-52), was performed on cell layers processed as described previously (Joddar B, Ramamurthi A. Fragment size- and dose-specific effects of hyaluronan on matrix synthesis by vascular smooth muscle cells. Biomaterials. 2006; 27(15): 2994-3004). Actual cell counts were then calculated on the basis of an estimated 6 pg DNA/cell.

[3] = test system: RASMCs; assay: Collagen synthesis by RASMCs (hydroxy-proline assay); format: cell-based, rat
[4] = test system: RASMCs; assay: Matrix elastin synthesis by RASMCs (Fastin assay; alkali-soluble and alkali-insoluble fractions); details: for increase of total matrix production: Example 3, growth factor only (no HA), 3 weeks
[5] = test system: RASMCs; assay: Desmosine content of cell-matrix layers (ELISA); format: cell-based, rat; details: Example 1
Description: Desmosine content of the cell-matrix layers was determined in expectation that it would correlate with the amounts of crosslinked elastin and serve as an indirect confirmation of the earlier observed biochemical trends, with regard to synthesis of matrix elastin. To assess desmosine content, compounded test and control cell pellets were digested with collagenase type VII (Sigma; 12 h, 37° C.) and re-centrifuged (3000 g, 10 min, 4° C.) to obtain a supernatant (SI) and a pellet. This pellet was digested with pancreatic porcine elastase type III (Sigma; 12 h, 37° C.) to obtain a soluble peptide fraction (SII). Fractions SI and SII were pooled together, acid-hydrolyzed with 6 N HCl (110° C., 16 h), dried under a stream of inert N2, re-constituted in water and the desmosine content determined by ELISA as previously done.

[6] = test system: RASMCs; assay: SDS-PAGE/Western blot of soluble tropoelastin in spent medium; format: cell-based, rat; details: Example 1, n=3/case
Description: SDS-PAGE and Western Blot were performed to confirm the observed biochemical trends for synthesis of soluble tropoelastin. Briefly, the aliquots of spent medium removed and pooled at bi-weekly intervals over the 21-day culture period, were lyophilized, assayed for protein content using a DC protein assay kit (Biorad Corporation, Hercules, Calif.), and subjected to SDS-PAGE and Western Blot. Optimized sample amounts (20 μg) were appropriately mixed and boiled (100° C., 5 min) with a loading buffer (2% w/v Sodium Dodecyl Sulfate (SDS), 62 mM Trizma base, 10% v/v Glycerol, 600 mM dithiothreitol), flash-spun in an ultracentrifuge (500 g, 2 min) and loaded under reduced conditions onto 10% w/v polyacrylamide gels (Novex Tris-Glycine gels, Invitrogen Corporation, Carlsbad, Calif.), with prestained protein standards ranging between 10-190 kDa (Benchmark Pre-stained Protein Ladder, Invitrogen) and western blot standards ranging between 20-220 kDa (MagicMark XP Western Protein Standards, Invitrogen). […] Following electrophoresis, the protein bands were transferred onto a PVDF pre-wetted membrane, developed, imaged using trans-white light, and quantified using the Alpha Innotech imaging software (Alpha Ease FC; Chemi-imager 4400) as described previously. […]

[7] = test system: RASMCs; assay: Tropoelastin synthesis by RASMCs (Fastin assay of pooled spent medium); format: cell-based, rat; details: Example 1, 21-day culture, n=3
[8] = test system: RASMCs; assay: Elastase degradation of elastin isolated from cultured cell layers; format: cell-based, rat; details: 8-hour enzymatic digestion
Description: Enzymatic degradation studies were performed to compare the impact of HA oligomer exposure and their mode of delivery on elastin matrix quality, particularly their resistance to enzymatic breakdown. Elastin matrices isolated by alkali digestion of aortae explanted from adult Sprague-Dawley rats served as additional controls for these studies. Briefly, adult rat aortal segments were removed from euthanized rats, from arch to the celiac axis, under sterile conditions, and spliced lengthwise in petri dishes containing cold phosphate-buffered saline (PBS) containing 2 mM Ca^2+. These spliced sections were then transferred to a dish containing 1-2 ml of collagenase (2 mg/ml; Worthington, Lakewood, N.J.) and incubated for 10 minutes at 37° C. DMEM:F12 media was then added to these collagenase treated samples and mixed well with gentle pipetting. Isolated aortal segments were further chopped crosswise into […] pieces and transferred using fine needles onto sterile petri dishes and stored in PBS at 4° C. until further use. Cell layers were scraped off the culture wells, pelleted by centrifugation (2000 g, 15 min), and stored at −20° C. in PBS until further use (n=9/case).
HA tetramers as described above in Example 1 were tethered onto 4-well glass chamber slides (Nalge Nunc International, Naperville, Ill.). […]

[9] = test system: lysyl oxidase (LOX); assay: LOX protein synthesis (Western blot of spent medium); details: Example 3, 16 day culture, alone or together with HA fragments

## O=S(=O)([O-])[O-].[Cu+2] [copper sulfate]
[1]; Example 4, 0.01 M alone
  LOX activity vs. controls: 1.4±0.2
[1]; Example 4, 0.1 M alone or concurrent with HA fragments (except VLMW HA)
  basal LOX functional activity: no significant effect
[2]; Example 4, 0.01 M copper sulfate and HA fragments
  cell proliferation: stimulated
[3]; Example 4, 0.01 M alone
  total collagen output per ng DNA vs. non-additive controls: 0.5±0.04 fold
[3]; Example 4, 0.01 M copper sulfate in the presence of oligomers, VLMW and HMW HA
  collagen synthesis vs. controls: consistently suppressed
[3]; Example 4, 0.1 M alone
  total collagen output per ng DNA vs. non-additive controls: 4.1±0.4 fold

## CC(=O)N[C@H]1[C@H](O[C@H]2[C@H](O)[C@@H](O)[C@H](O[C@H]3[C@H](O)[C@@H](CO)OC(O)[C@@H]3NC(C)=O)O[C@@H]2C(=O)O)O[C@H](CO)[C@@H](O)[C@@H]1O[C@@H]1O[C@H](C(=O)O)[C@@H](O)[C@H](O)[C@H]1O (stereo partly drawn) [pure HA 4-mer]
[2]; Example 1, 21 days of culture, n=3
  proliferation, times number at 1 day: 1.66±0.05 times number at 1 day
[4]; Example 1, 21-day culture
  DNA normalized matrix elastin output relative to controls: 2.7±0.3 times
[5]
  desmosine amount normalized to DNA and to non-HA controls: 4.76±0.10
[6]
  normalized tropoelastin band intensity (pixel intensity per ng DNA): 0.15±0
[3]; Example 1, 21-day culture
  collagen production (DNA normalized) relative to respective controls: 2.0±0.1 times
[7]
  tropoelastin output (DNA normalized) relative to respective control cultures: 1.63±0.06 times
[8]; exogenous HA 4 mers
  % weight loss of cell pellet elastin on elastase digestion: 35%
[8]; surface-tethered HA 4 mers
  % weight loss of cell pellet elastin on elastase digestion: 50%

## O=S(=O)([O-])[O-].[Na+].[Na+] [sodium sulfate, reference compound]
[2]; Example 4, alone, irrespective of the added dose (0.01 and 0.1 M)
  RASMC proliferation vs. controls: no effect
[3]; Example 4, 0.01 M alone
  total collagen output per ng DNA vs. non-additive controls: 1.1±0.13 fold
[3]; Example 4, 0.1 M alone
  total collagen output per ng DNA vs. non-additive controls: 0.94±0.15 fold

## IGF-1: insulin-like growth factor, added at 500 ng/ml
[2]; Example 3, 21 days, all cases except in the presence of oligomers and HMWHA
  inhibition of cell proliferation: 50%
[4]; Example 3, IGF-1 only with no HA
  elastin matrix production compared to control: did not upregulate
[4]
  increase of total matrix production: 150±20%

## TGF-β: transforming growth factor, added at 1 ng/ml
[9]
  LOX protein synthesis: enhanced
[4]; Example 3
  crosslinking of soluble tropoelastin into matrix elastin: significantly enhance
[4]
  increase of total matrix production: 270±12%
[3]; Example 3, in inverse correlation to the added HA fragment size
  collagen production: inhibit
